Laboratory results as given in patent US8546608B2, “Proteasome inhibitors and methods of using the same” (Cephalon, Inc., priority 2003, dated 2013).

Key:
[1] = biological target: T1, 20S Human Erythrocyte Proteasome (HEP) (Homo sapiens, UniProt P20618+P28074); assay: Chymotrypsin-like activity of 20S Human Erythrocyte Proteasome (HEP), IC50 determination; type: biochemical; conditions: assay of Example C, inhibition of HEP
T1 construct: 20S Human Erythrocyte Proteasome (HEP), purchased from Immatics Biotechnologies Inc; purchased Immatics Biotechnologies Inc., Tübingen, Germany; host or cells: human erythrocytes (natural source)
Method in brief: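 20S proteasome at 0.2 μg/mL (about 0.6 nM catalytic sites) in 20 mM Tris with 0.04% SDS, preincubated 15 min at 37° C with inhibitor before Suc-LLVY-AMC (100 μM final). AMC fluorescence read in the linear range; triplicates, IC50 from concentration series.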

[2] = biological target: T2, proteasome in Molt-4 cells (human leukemia) (Homo sapiens, UniProt P20618+P28074); type: cell-based; conditions: assay of Example E, inhibition of MOLT4; read-out: MOLT4 (EC50)
T2 sequence (P28074 60-263): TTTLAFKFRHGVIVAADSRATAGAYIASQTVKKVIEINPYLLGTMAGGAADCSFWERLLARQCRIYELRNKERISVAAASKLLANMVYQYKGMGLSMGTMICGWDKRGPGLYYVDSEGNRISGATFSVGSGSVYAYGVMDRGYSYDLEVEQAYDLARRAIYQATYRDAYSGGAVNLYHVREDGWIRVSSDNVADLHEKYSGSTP
T2 sequence (P20618 29-241): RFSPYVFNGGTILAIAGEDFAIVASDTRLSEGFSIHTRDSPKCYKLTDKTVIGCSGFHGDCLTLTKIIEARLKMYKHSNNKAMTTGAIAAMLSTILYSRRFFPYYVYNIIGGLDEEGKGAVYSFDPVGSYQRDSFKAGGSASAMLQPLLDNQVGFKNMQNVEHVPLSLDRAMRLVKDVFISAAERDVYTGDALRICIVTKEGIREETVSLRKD
Method in brief: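 Intact Molt-4 cells (6×10^6 cells/mL) in HEPES-buffered saline were preincubated with inhibitor 15 min at 37 °C, then given cell-permeable MeOSuc-FLF-AFC at 25 μM final.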

| Compound | IC50 [1] [nM] | EC50 [2] [nM] |
| --- | --- | --- |
| COc1ccccc1/C=C\C(=O)N[C@@H](CCCNC(=N)N[N+](=O)[O-])C(=O)N[C@@H](CC(C)C)B1O[C@@H]2C[C@@H]3C[C@@H](C3(C)C)[C@]2(C)O1 [D.3.31, cis-3-(2-Methoxyphenyl)acrylamide,N-[(1S)-1-[[[(1R)-1-[(3aS,4S,6S,7aR)-hexahydro-3a,5,5-trimethyl-4,6-methano-1,3,2-benzodioxaborol-2-yl]-3-methylbutyl]amino]carbonyl]-4-[[imino(nitroamino)methyl]amino]butyl]] | < 100 | 200 to 2000 |
| CC(C)C[C@H](NC(=O)[C@H](CCCNC(=N)N[N+](=O)[O-])NC(=O)/C=C/c1ccccc1Br)B1O[C@@H]2C[C@@H]3C[C@@H](C3(C)C)[C@]2(C)O1 [D.3.34] | < 10 | < 200 |
| Cc1ccc(CCCC(=O)N[C@@H](CCCNC(=N)N[N+](=O)[O-])C(=O)N[C@@H](CC(C)C)B2O[C@@H]3C[C@@H]4C[C@@H](C4(C)C)[C@]3(C)O2)cc1 [D.3.36, 4-(4-methylphenyl)butanamide,N-[(1S)-1-[[[(1R)-1-[(3aS,4S,6S,7aR)-hexahydro-3a,5,5-trimethyl-4,6-methano-1,3,2-benzodioxaborol-2-yl]-3-methylbutyl]amino]carbonyl]-4-[[imino(nitroamino)methyl]amino]butyl]] | < 10 | < 200 |
| CC(C)C[C@H](NC(=O)[C@H](CCCNC(=N)N[N+](=O)[O-])NC(=O)CSc1ccc2ccccc2c1)B1O[C@@H]2C[C@@H]3C[C@@H](C3(C)C)[C@]2(C)O1 [D.3.37] | < 10 | < 200 |
| CC(C)CCCC(=O)N[C@@H](CCCNC(=N)N[N+](=O)[O-])C(=O)N[C@@H](CC(C)C)B1O[C@@H]2C[C@@H]3C[C@@H](C3(C)C)[C@]2(C)O1 [D.3.38] | < 10 | < 200 |
| CC(C)C[C@H](NC(=O)[C@H](CCCNC(=N)N[N+](=O)[O-])NC(=O)CCc1cccs1)B1O[C@@H]2C[C@@H]3C[C@@H](C3(C)C)[C@]2(C)O1 [D.3.39, 3-Thiophen-2-yl-propanamide,N-[(1S)-1-[[[(1R)-1-[(3aS,4S,6S,7aR)-hexahydro-3a,5,5-trimethyl-4,6-methano-1,3,2-benzodioxaborol-2-yl]-3-methylbutyl]amino]carbonyl]-4-[[imino(nitroamino)methyl]amino]butyl]] | < 10 | < 200 |
| CC(C)C[C@H](NC(=O)[C@H](CCCNC(=N)N[N+](=O)[O-])NC(=O)CC1CCCCCC1)B1O[C@@H]2C[C@@H]3C[C@@H](C3(C)C)[C@]2(C)O1 [D.3.43] | < 10 | < 200 |
| CC(C)C[C@H](NC(=O)[C@H](CCCNC(=N)N[N+](=O)[O-])NC(=O)CCc1ccccc1)B1O[C@@H]2C[C@@H]3C[C@@H](C3(C)C)[C@]2(C)O1 [D.3.49, 3-Phenylpropanamide,N-[(1S)-1-[[[(1R)-1-[(3aS,4S,6S,7aR)-hexahydro-3a,5,5-trimethyl-4,6-methano-1,3,2-benzodioxaborol-2-yl]-3-methylbutyl]amino]carbonyl]-4-[[imino(nitroamino)methyl]amino]butyl]] | < 10 | 200 to 2000 |
| COc1ccc(CCCC(=O)N[C@@H](CCCNC(=N)N[N+](=O)[O-])C(=O)N[C@@H](CC(C)C)B2O[C@@H]3C[C@@H]4C[C@@H](C4(C)C)[C@]3(C)O2)cc1 [D.3.50] | < 10 | < 200 |
| CC(C)C[C@H](NC(=O)[C@H](CCCNC(=N)N[N+](=O)[O-])NC(=O)COc1ccc(C(C)C)cc1)B1O[C@@H]2C[C@@H]3C[C@@H](C3(C)C)[C@]2(C)O1 [D.3.54] | < 10 | < 200 |
| CCc1ccc(OCC(=O)N[C@@H](CCCNC(=N)N[N+](=O)[O-])C(=O)N[C@@H](CC(C)C)B2O[C@@H]3C[C@@H]4C[C@@H](C4(C)C)[C@]3(C)O2)cc1 [D.3.55] | < 10 | < 200 |
| Cc1cccc(/C=C/C(=O)N[C@@H](CCCNC(=N)N[N+](=O)[O-])C(=O)N[C@@H](CC(C)C)B2O[C@@H]3C[C@@H]4C[C@@H](C4(C)C)[C@]3(C)O2)c1 [D.3.57, 3-(3-Methylphenyl)acrylamide,N-[(1S)-1-[[[(1R)-1-[(3aS,4S,6S,7aR)-hexahydro-3a,5,5-trimethyl-4,6-methano-1,3,2-benzodioxaborol-2-yl]-3-methylbutyl]amino]carbonyl]-4-[[imino(nitroamino)methyl]amino]butyl]] | < 10 | < 200 |
| CC(C)C[C@H](NC(=O)[C@H](CCCNC(=N)N[N+](=O)[O-])NC(=O)CC12CC3CC(CC(C3)C1)C2)B1O[C@@H]2C[C@@H]3C[C@@H](C3(C)C)[C@]2(C)O1 [D.3.58, 2-Adamantan-1-ylacetamide,N-[(1S)-1-[[[(1R)-1-[(3aS,4S,6S,7aR)-hexahydro-3a,5,5-trimethyl-4,6-methano-1,3,2-benzodioxaborol-2-yl]-3-methylbutyl]amino]carbonyl]-4-[[imino(nitroamino)methyl]amino]butyl]] | < 10 | < 200 |
| Cc1ccc(/C=C/C(=O)N[C@@H](CCCNC(=N)N[N+](=O)[O-])C(=O)N[C@@H](CC(C)C)B2O[C@@H]3C[C@@H]4C[C@@H](C4(C)C)[C@]3(C)O2)cc1 [D.3.62, 3-(4-Methylphenyl)acrylamide,N-[(1S)-1-[[[(1R)-1-[(3aS,4S,6S,7aR)-hexahydro-3a,5,5-trimethyl-4,6-methano-1,3,2-benzodioxaborol-2-yl]-3-methylbutyl]amino]carbonyl]-4-[[imino(nitroamino)methyl]amino]butyl]] | < 10 | < 200 |
| CC(C)C[C@H](NC(=O)[C@H](CCCNC(=N)N[N+](=O)[O-])NC(=O)c1ccc(-n2cccc2)cc1)B1O[C@@H]2C[C@@H]3C[C@@H](C3(C)C)[C@]2(C)O1 [D.3.64, 4-Pyrrol-1-yl-benzamide,N-[(1S)-1-[[[(1R)-1-[(3aS,4S,6S,7aR)-hexahydro-3a,5,5-trimethyl-4,6-methano-1,3,2-benzodioxaborol-2-yl]-3-methylbutyl]amino]carbonyl]-4-[[imino(nitroamino)methyl]amino]butyl]] | < 10 | < 200 |
| CCCC/C=C/C(=O)N[C@@H](CCCNC(=N)N[N+](=O)[O-])C(=O)N[C@@H](CC(C)C)B1O[C@@H]2C[C@@H]3C[C@@H](C3(C)C)[C@]2(C)O1 [D.3.66, Hept-2-enamide,N-[(1S)-1-[[[(1R)-1-[(3aS,4S,6S,7aR)-hexahydro-3a,5,5-trimethyl-4,6-methano-1,3,2-benzodioxaborol-2-yl]-3-methylbutyl]amino]carbonyl]-4-[[imino(nitroamino)methyl]amino]butyl]] | < 10 | < 200 |
| Cc1ccc(OCC(=O)N[C@@H](CCCNC(=N)N[N+](=O)[O-])C(=O)N[C@@H](CC(C)C)B2O[C@@H]3C[C@@H]4C[C@@H](C4(C)C)[C@]3(C)O2)cc1C [D.3.67, 2-(3,4-Dimethylphenoxy)acetamide,N-[(1S)-1-[[[(1R)-1-[(3aS,4S,6S,7aR)-hexahydro-3a,5,5-trimethyl-4,6-methano-1,3,2-benzodioxaborol-2-yl]-3-methylbutyl]amino]carbonyl]-4-[[imino(nitroamino)methyl]amino]butyl]] | < 10 | < 200 |
| CCCCCC/C=C/CC(=O)N[C@@H](CCCNC(=N)N[N+](=O)[O-])C(=O)N[C@@H](CC(C)C)B1O[C@@H]2C[C@@H]3C[C@@H](C3(C)C)[C@]2(C)O1 [D.3.70, (E)-Dec-3-enoic acid amide,N-[(1S)-1-[[[(1R)-1-[(3aS,4S,6S,7aR)-hexahydro-3a,5,5-trimethyl-4,6-methano-1,3,2-benzodioxaborol-2-yl]-3-methylbutyl]amino]carbonyl]-4-[[imino(nitroamino)methyl]amino]butyl]] | < 10 | < 200 |
| CC(C)C[C@H](NC(=O)[C@H](CCCNC(=N)N[N+](=O)[O-])NC(=O)CCCCC1CCCCC1)B1O[C@@H]2C[C@@H]3C[C@@H](C3(C)C)[C@]2(C)O1 [D.3.73] | < 10 | < 200 |
| CC(C)=CCC[C@@H](C)CC(=O)N[C@@H](CCCNC(=N)N[N+](=O)[O-])C(=O)N[C@@H](CC(C)C)B1O[C@@H]2C[C@@H]3C[C@@H](C3(C)C)[C@]2(C)O1 [D.3.75, (3R)-3,7-Dimethyl-oct-6-enoic acid amide,N-[(1S)-1-[[[(1R)-1-[(3aS,4S,6S,7aR)-hexahydro-3a,5,5-trimethyl-4,6-methano-1,3,2-benzodioxaborol-2-yl]-3-methylbutyl]amino]carbonyl]-4-[[imino(nitroamino)methyl]amino]butyl]] | < 10 | < 200 |
| CCOc1ccc(C(=O)N[C@@H](CCCNC(=N)N[N+](=O)[O-])C(=O)N[C@@H](CC(C)C)B2O[C@@H]3C[C@@H]4C[C@@H](C4(C)C)[C@]3(C)O2)cc1 [D.3.91] | < 10 | < 200 |
